Columns and labels:
[1] = Comparative clinical study: overall healing process (conclusions); format: in vivo; settings: patients with acute non-complex urinary tract infection, 5 days of treatment
Protocol: (§1) Urinary tract infection constitutes the most frequent urologic disease and is one of the most common infections in human beings. Urinary infection encompasses several clinical conditions, so the proper study thereof is very important for a suitable diagnose and treatment, in view of the extensive and not inconsiderable hospital and healthcare expenses these involve.
(§2) Only twice a day for 5 days,- group 2, received Vitamin C 100 mg.

[2] = Comparative clinical study: general urine examination (leukocytes in urine sediments, urine pH); format: in vivo, patients; settings: n=50 per group
Source text: as §1
(§3) Inclusion criteria were the following: • - Patients from 18 to 75 years of age. • - Patients having a non-complex acute urinary infection diagnose. • > 12 leukocytes per mm3 in urine sediments. • - Urine counts of > 100,000 UFC/ml. • - Urine pH over 6.0. • - Microorganism identification.
as §2
General urine examination determined the color, appearance and density thereof, as well as the pH, Proteins, Glucose, Ketones, Blood, Bilirubin, Urobilinogen, Nitrites, Density and Leukocytes. […] Table 2. Leukocytes per mm3 in baseline urine sediments and up to Day 5 of the treatment.

E. coli = assay: Comparative clinical study: urocultive by antibiogram, urine counts (colony-forming units); format: in vivo, Escherichia coli; settings: n=50 per group
Source text: as §1, §3, §2
Table 4. Urine Counts in UFC/ml. (Colony-Forming Units).

Compound: O=C1O[C@H]([C@@H](O)CO)C(O)=C1O [Vitamin C, Ascorbic Acid]
- healing process [1]: not sufficient by itself to achieve a healing process
- pH (Day 1) ([2]; baseline urine pH, before treatment): 7.6
- Leukocytes (Day 1) ([2]; baseline urine sediments, before treatment): > 13 per mm3
- pH (Day 5) ([2]; urine pH, Day 5 of the treatment, twice a day for 5 days): 5.0
- Leukocytes Day 5 ([2]; urine sediments, Day 5 of the treatment, twice a day for 5 days): < 10 per mm3
- UFC/ml (Day 1) (E. coli; baseline urine counts (Colony-Forming Units), before treatment): >100,000/ml. UFC/ml
- UFC/ml Day 5 (E. coli; urine counts (Colony-Forming Units), Day 5 of the treatment, twice a day for 5 days): 90.000/ml. UFC/ml
